The target of assay [1] is T1, Serine/threonine-protein kinase WNK1 [1-491] (Homo sapiens, UniProt Q9H4A3).
T1 construct: 1-491
Put plainly: In vitro OSR1 Phosphorylation Assay (OSR1). To be noted: pH 7.3; 4 °C. The protocol: 0.2 nM GST-hWNK1(1-491) (Carna Biosciences, cat# 05-179); 3.5 ug/ml GST-OSR1; 20 mM HEPES; 0.01% Tween; 5 mM MnCl2; 1 mM TCEP; 2% DMSO; 0.5 uM ATP, pH 7.3 (total volume 40 ul) were incubated for 15 min at room temperature. Samples were […] mixed with Laemmli sample buffer and resolved on a 10% Tris-glycine gel, and transferred to nitrocellulose. Membranes were blocked in 5% non-fat milk dissolved in Tris-buffered saline with tween (TBST) for 30 min, washed 3x for 10 min in TBST and incubated with phospho-OSR1 antibody (1:1,000; see Reagents section) at […] overnight. Blots were again washed with TBST and incubated with HRP-conjugated anti-rabbit IgG (1:2,500; catalog # 7074, Cell Signaling) at room temperature for 30 min. Blots were again washed and developed with SuperSignal West Femto Maximum Sensitivity Chemiluminescent Substrate for HRP (Thermo Scientific), and quantified with a Fujifilm LAS-3000 Luminescent Image Analyzer.

The target in assay [2] is T1, Serine/threonine-protein kinase WNK1 [1-491]. Put plainly: In vitro MBP Phosphorylation Assay (MBP). The settings on record: pH 7.3; 25 °C. Here is the method:
(§1) Each well of the MBP-coated ScintiPlates held 100 ul of a solution containing 20 mM HEPES pH 7.3, 5 mM MnCl2 (WNK1 and WNK4) or 3 mM MnCl2 (WNK2 and WNK3), 0.01% Tween-20 (WNK1, WNK3 and WNK4) or 0.02% Tween-20 (WNK2), 1 mM TCEP, 2% DMSO, 1 uM ATP (WNK1, WNK3 and WNK4) or 2 uM ATP (WNK2), 1 uCi [gamma-33P]ATP (WNK1, WNK2, WNK4) or 0.25 uCi [gamma-33P]ATP (WNK3), WNK kinase enzyme (5 nM WNK1, 10 nM WNK2, 5 nM WNK3 or 10 nM WNK4) and compound at the desired concentration. The plate was sealed with a clear adhesive cover and mixed for 20 s at 800 r.p.m. on a bench top plate shaker. The plate was then placed in a 25 °C shaking incubator at 175 r.p.m for 3 h (WNK1 and WNK4), 2 h (WNK3) or 1 h (WNK2). The kinase reaction was stopped by the addition of 50 ul of 45 mM EDTA, 0.01% Tween-20, and 20 mM HEPES, pH 7.3. The content of each well was then aspirated, and the well was washed three times with 300 ul of 150 mM NaCl, 0.02% Tween-20, and 50 mM Tris-HCl pH 7.4. Incorporation of 33P into the bound MBP substrate was measured using a MicroBeta TriLux LSC and Luminescence plate counter.

The target in assay [3] is T2, Serine/threonine-protein kinase WNK1 [1-444] (Homo sapiens, UniProt Q9H4A3).
T2 construct: 1-444
T2 sequence (Q9H4A3 1-444): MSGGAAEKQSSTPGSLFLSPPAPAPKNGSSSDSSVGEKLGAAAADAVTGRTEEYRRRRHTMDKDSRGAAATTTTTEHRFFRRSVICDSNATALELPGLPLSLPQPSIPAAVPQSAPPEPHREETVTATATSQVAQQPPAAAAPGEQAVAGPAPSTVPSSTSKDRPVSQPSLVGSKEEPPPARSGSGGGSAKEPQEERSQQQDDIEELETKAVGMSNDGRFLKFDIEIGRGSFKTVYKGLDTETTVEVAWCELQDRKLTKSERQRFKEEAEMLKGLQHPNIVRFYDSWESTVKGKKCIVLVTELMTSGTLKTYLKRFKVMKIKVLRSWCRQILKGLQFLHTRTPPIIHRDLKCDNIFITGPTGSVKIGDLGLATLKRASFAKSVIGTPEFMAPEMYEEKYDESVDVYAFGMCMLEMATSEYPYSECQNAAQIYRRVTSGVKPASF
Kind of assay: In vitro MBP Phosphorylation Assay (MBP). To be noted: pH 7.3; 25 °C. Here is the method:
as §1

In assay [4] the target is T3, Serine/threonine-protein kinase WNK1 [166-489] (Homo sapiens, UniProt Q9H4A3).
T3 construct: 166-489
T3 sequence (Q9H4A3 166-489): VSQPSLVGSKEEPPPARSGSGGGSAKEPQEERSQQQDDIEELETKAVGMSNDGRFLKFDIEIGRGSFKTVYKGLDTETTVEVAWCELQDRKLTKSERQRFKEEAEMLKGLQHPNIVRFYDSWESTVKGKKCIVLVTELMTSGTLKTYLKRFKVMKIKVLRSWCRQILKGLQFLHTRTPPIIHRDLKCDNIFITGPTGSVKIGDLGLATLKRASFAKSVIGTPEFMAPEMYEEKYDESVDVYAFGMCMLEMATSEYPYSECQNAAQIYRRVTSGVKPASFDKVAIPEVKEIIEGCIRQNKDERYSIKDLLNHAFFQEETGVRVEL
Put plainly: In vitro MBP Phosphorylation Assay (MBP). The settings on record: pH 7.3; 25 °C. The protocol:
as §1

Assay [5] addresses T4, Serine/threonine-protein kinase WNK1 [1-434] (Homo sapiens, UniProt Q9H4A3).
T4 construct: 1-434
Kind of assay: In vitro MBP Phosphorylation Assay (MBP). The settings on record: pH 7.3; 25 °C. Here is the method: as §1

SMILES strings stand for the structures.

One may read the IC50 as the midpoint of a concentration-inhibition curve. High values mean lower potency, low ones higher potency.

T1 sequence (Q9H4A3 1-491): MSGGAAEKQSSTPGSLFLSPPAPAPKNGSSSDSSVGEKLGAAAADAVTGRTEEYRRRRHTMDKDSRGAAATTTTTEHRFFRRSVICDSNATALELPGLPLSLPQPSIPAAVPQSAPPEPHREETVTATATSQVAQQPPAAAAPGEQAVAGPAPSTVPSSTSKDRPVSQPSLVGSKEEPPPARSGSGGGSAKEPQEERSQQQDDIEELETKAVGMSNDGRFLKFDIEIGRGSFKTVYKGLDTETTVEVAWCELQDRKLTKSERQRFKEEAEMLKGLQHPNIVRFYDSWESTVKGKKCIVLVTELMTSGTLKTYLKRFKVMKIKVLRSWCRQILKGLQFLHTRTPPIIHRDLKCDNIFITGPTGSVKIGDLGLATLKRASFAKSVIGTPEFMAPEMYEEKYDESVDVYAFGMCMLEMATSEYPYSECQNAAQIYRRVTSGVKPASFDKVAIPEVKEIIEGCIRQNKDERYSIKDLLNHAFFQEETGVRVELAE
T4 sequence (Q9H4A3 1-434): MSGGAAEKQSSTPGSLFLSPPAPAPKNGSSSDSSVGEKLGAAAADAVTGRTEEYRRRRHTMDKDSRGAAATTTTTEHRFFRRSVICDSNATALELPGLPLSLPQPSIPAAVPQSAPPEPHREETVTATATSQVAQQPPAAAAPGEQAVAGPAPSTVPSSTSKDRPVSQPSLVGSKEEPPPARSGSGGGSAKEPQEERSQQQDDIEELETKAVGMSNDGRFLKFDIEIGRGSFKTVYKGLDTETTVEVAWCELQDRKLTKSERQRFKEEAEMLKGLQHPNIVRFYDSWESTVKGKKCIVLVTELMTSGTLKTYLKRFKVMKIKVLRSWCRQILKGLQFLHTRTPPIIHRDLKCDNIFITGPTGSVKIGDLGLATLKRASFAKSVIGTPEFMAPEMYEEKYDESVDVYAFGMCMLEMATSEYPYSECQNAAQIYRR

For `CC(C)(C)NC(=O)c1cncn1C1CCN(c2ccc(-c3nnc(C(F)(F)F)o3)cc2)CC1` [WNK463 (2)], the concentration for half-maximal inhibition (IC50) in assay [1] came out at 41 nM; in assay [2] it was 5 nM; in assay [3], 9 nM; in assay [4], 1 nM; in assay [5], 6 nM.
In assay [2], `COc1ccc(CC(=O)N2CCC(n3cncc3C(=O)NCCc3ccccc3)C2)cc1` [(R)-1-(1-(2-(4-methoxyphenyl)acetyl)pyrrolidin-3-yl)-N-phenethyl-1H-imidazole-5-carboxamide (1)] displayed an IC50 of 856 nM.

Source of the values: BindingDB's records for doi:10.1038/nchembio.2168 (Novartis Institutes, 2016).
